# According to patent US9839618B2, “Compositions and methods relating to proliferative diseases” (The Penn State Research Foundation, priority 2010, dated 2017):
# Where two headings read alike, the source gives them in different places.
# Key:
# [1] = system: FF2441 normal human fibroblasts; assay: MTS assay viability IC50, normal fibroblasts; assay type: cell-based; conditions: read-out: IC50 Normal fibroblast FF2441
# Method: (§1) The efficacy of leelamine to kill other cancer types is measured and the IC50 for cell lines derived from carcinomas of breast, lung, prostate, connective tissue, pancreas and colon determined. The MTS assay as described in Sharma, A. et al., Clin Cancer Res, 2009, 15:1674-85; and Madhunapantula, S. V. et al., Mol Cancer Ther, 2008, 7:1297-308 is used to establish the IC50 at 24, 48 and 72 hours of leelamine treatment for normal human epidermal melanocytes (FOM103), normal skin fibroblast cells (FF2441), normal skin keratinocytes (HFK) and compared to melanocytic lesion cells from the radial-, vertical- and metastatic melanoma stages. 5×10^3 cells per well in 100 μL of media are plated and grown in a 96-well plate for 48 to 72 hours and treated with either DMSO vehicle control or 0.62 to 40 μmol/L of leelamine for 24, 48 or 72 hours. IC50 values for each compound in μmol/L for respective cell lines are measured from three independent experiments using GraphPad Prism version 4.01 (GraphPad Software, La Jolla, Calif.). Leelamine is found to be not toxic to normal cells and effective to kill melanoma cells as well as non-melanoma cancer cells as shown in Table 1 in FIG. 20. Leelamine is 3- to 4-fold more specific at killing metastatic melanoma than normal cells, supporting cancer therapeutic utility at concentrations<2 μmol/L.
# 5×10^3 cells per well in 100 μL of media are plated and grown in a 96-well plate for 48 to 72 hours and treated with either DMSO vehicle control or 0.62 to 40 μmol/L of leelamine for 24, 48 or 72 hours. IC50 values for each compound in μmol/L for respective cell lines are measured from three independent experiments using GraphPad Prism version 4.01 (GraphPad Software, La Jolla, Calif.). […]
# (§2) Dehydroabietylamine, its N-substituted derivatives and the corresponding dihydroabietylamine and its N-substituted derivatives are tested for their capability to inhibit cell growth of cancer cell lines, including melanoma (UACC 903, 1205Lu), breast (MCF-7), fibrosarcoma (HT-1080), colon (Caco-2), and prostate (PC-3) cancer cell lines. Viability and IC50 of normal human fibroblasts and cell lines from melanoma and other malignancies following treatment with all the agents are measured using the MTS assay (Promega, Madison, Wis.). Human fibroblast FF2441 cells, metastatic melanoma cell lines 1205 Lu and UACC 903 as well as cancer cell lines representing sarcoma (HT-1080), prostate (PC-3, LNCaP), breast (MCF-7) and lung (A-549) are maintained in DMEM (Invitrogen, Carlsbad, Calif.) supplemented with 10% FBS (Hyclone, Logan, Utah) in a 5% CO2 atmosphere, humidified 37° C. incubator. 5×10^3 cells per well in 100 μL of media are plated and grown in a 96-well plate for 48 to 72 h and treated with either DMSO vehicle control or 0.62 to 40 μmol/L for 24, 48 or 72 h. IC50 values for each compound in […] for respective cell lines are measured from three independent experiments using GraphPad Prism version 4.01 (GraphPad Software, La Jolla, Calif.). FIG. 52 is a graph showing IC50 values for leelamine and compounds 4a, 4b and 5a in treated fibroblasts (FF2441) compared to melanoma cells. Selectivity ratio here is defined as ratio of activity against fibroblasts compared to activity against melanoma cells. Leelamine is relatively selective with a ratio of >6 and >4 for UACC903 and 1205Lu melanoma cells. The selectivity ratio of compound 4a is ˜4 and ˜3 for UACC903 and 1205Lu and for compound 4b is ˜4 for both cell lines. The selectivity ratio of compound 5a is ˜4 for UACC903 and >2 for 1205Lu cells.
# [2] = system: UACC 903 metastatic melanoma cells; assay: MTS assay viability IC50, UACC 903; assay type: cell-based, human
# Method: as §1
# (§3) 5×10^3 cells per well in 100 μL of media are plated and grown in a 96-well plate for 48 to 72 hours and treated with either DMSO vehicle control or 0.62 to 40 μmol/L of leelamine for 24, 48 or 72 hours. IC50 values for each compound in μmol/L for respective cell lines are measured from three independent experiments using GraphPad Prism version 4.01 (GraphPad Software, La Jolla, Calif.).
# (§4) The IC50 and effect of liposomal preparations of leelamine on viability of normal human melanocytes, fibroblasts and melanoma cells UACC 903 and 1205 Lu are measured using the MTS assay (Promega, Madison, Wis.). Empty liposomes or liposomes containing abietic acid are used as controls. 5×10^3 cells per well in 100 μL of media are plated and grown in a 96-well plate for 48 or 72 hours for melanoma and normal cell lines, respectively. The cells are then treated with 0.62 to 40 μmol/L of liposome alone, a liposomal preparation of abietic acid, or with Nanolipolee-007 for 24 hours. IC50 values for each liposome in μmol/L for respective cell lines are measured from three independent experiments using GraphPad Prism version 4.01 (GraphPad Software, La Jolla, Calif.). Nanolipolee-007 retains the growth inhibitory activity of leelamine in killing melanoma cells in culture and specifically kills melanoma cells compared to normal cells, FIG. 24.
# as §2, with “FIG. 52 is a graph showing IC50 values for leelamine and compounds 4a, 4b and 5a in treated fibroblasts (FF2441) compared to melanoma cells. Selectivity ratio here is defined as ratio of activity against fibroblasts compared to activity against melanoma cells. Leelamine is relatively selective with a ratio of >6 and >4 for UACC903 and 1205Lu melanoma cells. The selectivity ratio of compound 4a is ˜4 and ˜3 for UACC903 and 1205Lu and for compound 4b is ˜4 for both cell lines. The selectivity ratio of compound 5a is ˜4 for UACC903 and >2 for 1205Lu cells.” left out
# [3] = system: 1205 Lu metastatic melanoma cells; assay: MTS assay viability IC50, 1205 Lu; assay type: cell-based, human
# Method: as §1, §3, §4
# as §2, with “FIG. 52 is a graph showing IC50 values for leelamine and compounds 4a, 4b and 5a in treated fibroblasts (FF2441) compared to melanoma cells. Selectivity ratio here is defined as ratio of activity against fibroblasts compared to activity against melanoma cells. Leelamine is relatively selective with a ratio of >6 and >4 for UACC903 and 1205Lu melanoma cells. The selectivity ratio of compound 4a is ˜4 and ˜3 for UACC903 and 1205Lu and for compound 4b is ˜4 for both cell lines. The selectivity ratio of compound 5a is ˜4 for UACC903 and >2 for 1205Lu cells.” left out
# [4] = system: melanoma cell lines (UACC 903, 1205Lu); assay: MTS assay, melanoma cell lines (cell line not given); assay type: cell-based, human; conditions: Homo sapiens; Example 8
# Method: The mechanistic basis of leelamine's activity to inhibit melanoma cell growth is determined by examining the effect of leelamine on 1) cell viability using the MTS assay; 2) proliferation using a BrdU incorporation assay; 3) apoptosis using an assay for caspase-3/7 activity; and 4) cell cycle analysis. The MTS assay as described in Sharma, A. et al., Clin Cancer Res, 2009, 15:1674-85; and Madhunapantula, S. V. et al., Mol Cancer Ther, 2008, 7:1297-308 is used to assay cell viability. Rates of proliferation and apoptosis are measured by seeding 5×10^3 cells in 96-well plates, followed by treatment with 0.62 to 10 μmol/L of leelamine for 24 hours. Proliferating and apoptotic cells are quantified using a colorimetric cell proliferation ELISA BrdU kit (Roche diagnostics, Indianapolis, Ind.) or Apo-ONE Homogenous caspase-3/7 assay kit (Promega, Madison, Wis.), respectively, as described in Sharma, A. et al., Clin Cancer Res, 2009, 15:1674-85; and Madhunapantula, S. V. et al., Mol Cancer Ther, 2008, 7:1297-308.
# as §2
# [5] = Table 4, read-out: IC50 Metastatic Melanoma Cell line UACC903
# [6] = Table 4, read-out: IC50 Metastatic Melanoma Cell line 1205Lu
# [7] = Homo sapiens, UACC-903, Example 8, read-out: IC50 UACC 903
# [8] = Homo sapiens, UACC-903, Table 4, read-out: IC50 Metastatic Melanoma Cell line UACC903
# [9] = Homo sapiens, UACC-903, Table 6, read-out: IC50 Metastatic melanoma UACC 903
# [10] = Homo sapiens, UACC-903, Table 7, read-out: IC50 (UACC903)
# [11] = Homo sapiens, 1205Lu, Table 4, read-out: IC50 Metastatic Melanoma Cell line 1205Lu
# [12] = Homo sapiens, 1205Lu, Table 6, read-out: IC50 Metastatic melanoma 1205 Lu
# [13] = Homo sapiens, 1205Lu, Example 8, read-out: IC50 1205Lu
SMILES,"IC50 [2, 9] [µM]","IC50 [2, 10] [µM]","IC50 [3, 12] [µM]",IC50 [4] [µM],IC50 ([1]; Table 6) [µM],further results
CCOC[C@]1(C)CCC[C@]2(C)C3CCC(C(C)C)C=C3C=CC12 (some centres unmarked) [Compound 2a],,,,,,"IC50 ([1]; Table 4): > 100 µM; IC50 [2, 5]: > 100 µM; IC50 [3, 6]: > 100 µM"
"CC(C)C1C=C2C=CC3[C@](C)(CO)CCC[C@]3(C)C2CC1 (stereo partly drawn) [Compound 2b, [(1R,4aR)-1,4a-dimethyl-7-(propan-2-yl)-1,2,3,4,4a,4b,5,6,7,100a-decahydrophenanthren-1-yl]methanol]",,,,,> 100,"IC50 ([1]; Table 4): > 100 µM; IC50 ([2]; Example 8, read-out: IC50 UACC 903): 53 µM; IC50 [2, 5]: 52.6 ± 1.34 µM; IC50 ([2]; Table 6, read-out: IC50 Metastatic melanoma UACC 903): 52.6 ± 1.34 µM; IC50 ([2]; Table 7, read-out: IC50 (UACC903)): 52.6 µM; IC50 ([3]; Example 8, read-out: IC50 1205Lu): 60 µM; IC50 [3, 6]: 60.4 ± 1.61 µM; IC50 ([3]; Table 6, read-out: IC50 Metastatic melanoma 1205 Lu): 60.4 ± 1.61 µM"
"CC(C)C1=CC2=CCC3[C@](C)(CCC[C@@]3(C)C(N)=O)C2CC1 (stereo partly drawn) [Compound 3a, (1R,4aR)-1,4a-dimethyl-7-(propan-2-yl)-1,2,3,4,4a,4b,5,6,10,10a-decahydrophenanthrene-1-carboxamide]",70.1 ± 1.8,70.1,81.1 ± 2.09,,> 100,"IC50 [2, 7]: 70 µM; IC50 [2, 8]: 70.1 ± 1.8 µM; IC50 [3, 11]: 81.1 ± 2.09 µM"
"CNC(=O)[C@]1(C)CCC[C@]2(C)C3CCC(C(C)C)=CC3=CCC21 (stereo partly drawn) [Compound 3b, (1R,4aR)-N,1,4a-trimethyl-7-(propan-2-yl)-1,2,3,4,4a,4b,5,6,10,10a-decahydrophenanthrene-1-carboxamide]",> 100,> 100,> 100,> 100,> 100,
"CCN(CC)C(=O)[C@]1(C)CCC[C@]2(C)C3CCC(C(C)C)=CC3=CCC21 (stereo partly drawn) [Compound 3c, (1R,4aR)-N,N-diethyl-1,4a-dimethyl-7-(propan-2-yl)-1,2,3,4,4a,4b,5,6,10,10a-decahydrophenanthrene-1-carboxamide]",,,,> 100,,
"CCN(CC)C[C@]1(C)CCC[C@]2(C)C3CCC(C(C)C)=CC3=CCC12 (stereo partly drawn) [Compound 4c, {[(1R,4aR)-1,4a-dimethyl-7-(propan-2-yl)-1,2,3,4,4a,4b,5,6,10,10a-decahydrophenanthren-1-yl]methyl}diethylamine]",24.4 ± 1.33,24.4,24.3 ± 2.5,,> 100,"IC50 [2, 7]: 24.4 µM; IC50 [2, 8]: 24.4 ± 1.33 µM; IC50 [3, 13]: 24.3 µM; IC50 [3, 11]: 24.3 ± 2.5 µM"
"CC(C)c1ccc2c(c1)CCC1[C@](C)(CNC(=O)C(Br)(Br)Br)CCC[C@]21C (stereo partly drawn) [GPR-5L, N-{[(1R,4aS)-1,4a-dimethyl-7-(propan-2-yl)-1,2,3,4,4a,9,10,10a-octahydrophenanthren-1-yl]methyl}-2,2,2-tribromoacetamide]",1.01 ± 0.08,1.01,1.88 ± 0.21,,,

# The next lines start with results.
"IC50 [2, 9] [µM]","IC50 [2, 10] [µM]","IC50 [3, 12] [µM]",IC50 [4] [µM],SMILES,IC50 ([1]; Table 6) [µM],further results
89.4 ± 3.31,89.4,,,"CC(=O)NC[C@]1(C)CCC[C@]2(C)c3ccc(C(C)C)cc3CCC12 (stereo partly drawn) [Compound 5b, N-{[(1R,4aS)-1,4a-dimethyl-7-(propan-2-yl)-1,2,3,4,4a,9,10,10a-octahydrophenanthren-1-yl]methyl}acetamide]",> 100,"IC50 [2, 7]: 89 µM; IC50 [3, 13]: > 50 µM; IC50 [3, 11]: > 50 µM"
> 100,> 100,,> 100,"CC(C)c1ccc2c(c1)CCC1[C@](C)(CNC(=O)c3ccccc3)CCC[C@]21C (stereo partly drawn) [Compound 5c, N-(((1R,4aS)-7-isopropyl-1,4a-dimethyl-1,2,3,4,4a,9,10,10a-octahydrophenanthren-1-yl)methyl)benzamide]",,
6.05,6.05,,6,"CC(C)c1ccc2c(c1)CCC1[C@](C)(CNCc3ccccc3)CCC[C@]21C (stereo partly drawn) [Compound 5d, N-benzyl-1-((1R,4aS)-7-isopropyl-1,4a-dimethyl-1,2,3,4,4a,9,10,10a-octahydrophenanthren-1-yl)methanamine]",,"IC50 [2, 8]: 6.05 ± 1.32 µM"
,,,> 100,"CC(C)c1ccc2c(c1)CCC1[C@](C)(CNC(c3ccccc3)(c3ccccc3)c3ccccc3)CCC[C@]21C (stereo partly drawn) [Compound 5e, {[(1R,4aS)-1,4a-dimethyl-7-(propan-2-yl)-1,2,3,4,4a,9,10,10a-octahydrophenanthren-1-yl]methyl}(triphenylmethyl)amine]",,
